Data from BindingDB's records for doi:10.1021/bi00839a042 (Michigan State University, 1969).

Target: T1, Complement C1s subcomponent (Homo sapiens, UniProt P09871)
T1 sequence (P09871 whole entry): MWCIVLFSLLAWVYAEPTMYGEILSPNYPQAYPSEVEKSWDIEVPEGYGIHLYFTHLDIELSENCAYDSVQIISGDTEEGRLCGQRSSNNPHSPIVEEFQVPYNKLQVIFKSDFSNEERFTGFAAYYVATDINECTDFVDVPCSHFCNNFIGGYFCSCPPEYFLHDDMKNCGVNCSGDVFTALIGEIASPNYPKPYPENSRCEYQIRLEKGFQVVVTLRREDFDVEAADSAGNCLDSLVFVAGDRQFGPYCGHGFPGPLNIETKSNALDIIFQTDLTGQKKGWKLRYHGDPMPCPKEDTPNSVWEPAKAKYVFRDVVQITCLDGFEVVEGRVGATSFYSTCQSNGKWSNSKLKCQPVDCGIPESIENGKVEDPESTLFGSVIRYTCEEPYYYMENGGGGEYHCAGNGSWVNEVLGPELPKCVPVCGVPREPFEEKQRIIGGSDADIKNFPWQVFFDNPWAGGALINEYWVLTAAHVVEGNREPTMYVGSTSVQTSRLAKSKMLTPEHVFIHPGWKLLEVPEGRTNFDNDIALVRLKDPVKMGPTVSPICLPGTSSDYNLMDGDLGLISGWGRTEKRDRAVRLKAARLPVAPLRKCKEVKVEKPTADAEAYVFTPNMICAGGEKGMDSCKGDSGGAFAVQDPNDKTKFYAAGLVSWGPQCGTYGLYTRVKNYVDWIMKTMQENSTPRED
Experiment: Enzymatic Assay
Settings: pH 8.05; 25.50 °C
Text: All readings were made in a Hitachi-Coleman ultraviolet-visible 101 spectrophotometer.

| Compound | Ki |
| --- | --- |
| Cc1nc(NC(=N)N)nc2ccccc12 [2-Guanidino-4-methylguinazoline] | 76.5 µM |
| N=C(N)Nc1ccccc1 [Alpha-Phenylguanidine] | 548 µM |
| N=C(N)NN [CAS_2146] | 18100 µM |
| N=C(N)NCC(=O)O [Guanidinacetic] | 4370 µM |
| O=C(NC(Cc1ccc(O)cc1)C(=O)O)c1ccccc1 [N-z-L-Tyr] | 370 µM |
| N=C(N)c1ccc([N+](=O)[O-])cc1 [p-Nitrobenzamidine] | 92500 µM |

Continued by falling Ki, values first:

| Ki | Compound |
| --- | --- |
| 13400 µM | CC(C)(C)CNC(=N)N [2,2'-Dimethyl-1-guanidinopropane] |
| 1120 µM | O=C(CCl)NC(Cc1ccc(O)cc1)C(=O)O [N-Chloroacetyl-L-tyrosine] |
| 603 µM | N=C(N)c1ccccc1 [Benzamidine] |
